# Several values for one entry are separate records, joined by “and”; a condition that tells them apart may be missing. Equal entries are not always repeated. Entries after “also recorded” stand apart in the source; their conditions may differ.
# Tests used:
# [1] = Mortality and gross toxicity on intravenous infusion; conditions: in words; conclusion
# Experimental: (§1) Water was available ad libitum at all times.
# (§2) The vein was then ligated dorsally to the catheter. […] Body weights were measured daily.
# [2] = Daily body weight of intravenously infused rats; format: in vivo, rat (male Sprague-Dawley); conditions: for Daily Body Weight: Table 10, Example 4
# Experimental: as §1, §2
# (§3) Infusate volume, oral food intake, body weight and urinary volume and total nitrogen were monitored daily for each rat. Infusate volume and food intake were determined by weighing the appropriate container at the start and end of each 24 hr. period. Measurements were recorded between 9 and 10 AM each day. At the end of the 7th day, rats were sacrificed, and blood and liver were harvested. Plasma was separated for measurement of free fatty acids, glucose, and ketone bodies. Liver was weighed and a sample was fixed in buffered formalin for gross histology.
# (§4) The data were analyzed for significance by the one-way analysis of variance with repeated measures and comparing the effect of dietary treatment on each day. […] The null hypothesis was concluded invalid if p≤0.05. The analysis of variance was computed on a SAS statistical package.
# (§5) This compound has an estimated energy density of 4.86 kcal/gram based on thermodynamic data from similar compounds.
# [3] = Oral dietary nitrogen (food) intake of intravenously infused rats; format: in vivo, rat (male Sprague-Dawley); conditions: in words
# Experimental: as §1, §2, §3, §4, §5
# [4] = as above; format: in vivo, rat (male Sprague-Dawley); conditions: Table 7, Example 4, oral only
# [5] = Plasma free fatty acids, glucose and ketone bodies after 7 days of infusion; format: in vivo, rat (male Sprague-Dawley); conditions: for ACAC / BOHB / Glucose / Total FFA: Table 11, Example 4
# Experimental: as §3, §4
# [6] = Liver weight after 7 days of infusion; format: in vivo, rat (male Sprague-Dawley); conditions: Table 11, Example 4; for Liver/100 GM: as percentage of body weight; for Liver Wt.: end of day 7
# Experimental: as §3
# (§6) The data were analyzed for significance by the one-way analysis of variance with repeated measures and comparing the effect of dietary treatment on each day. […] The null hypothesis was concluded invalid if p≤0.05. The analysis of variance was computed on a SAS statistical package. […]
# [7] = Overall evaluation as a parenteral nutrient; format: in vivo, rat (male Sprague-Dawley); conditions: in words
# Experimental: as §1, §2, §3, §4
# [8] = Daily urinary nitrogen losses of intravenously infused rats; format: in vivo, rat (male Sprague-Dawley); conditions: for Urinary Nitrogen: Table 8, Example 4
# Experimental: as §1, §2, §3, §6
# [9] = Nitrogen balance (difference between intake and urinary output); format: in vivo, rat (male Sprague-Dawley); conditions: for Nitrogen Balance, Difference Between Intake And Output: average of 9 rats
# Experimental: as §1, §2, §3, §4
# FIG. 3 illustrates the difference between oral intake and urinary nitrogen output which is termed nitrogen balance. It is representative of nitrogen balance because urinary nitrogen is the major route for body loss of nitrogen.
# The experimental compound contains 8% nitrogen. With an infusion of 5.6 grams/day, infused nitrogen would provide approximately 450 mg more than that listed in the data tables. The final balance figures includes this number which is calculated based on the actual daily infusion rate for each rat.
compound,measurement,setting,value
"CC(=O)CC(=O)NCC(O)CO (centres unmarked) [Compound 2, 1-acetoacetamido-2,3-propane diol]",lethality,[1],not acutely nor chronically lethal
same,Daily Body Weight,"[2]; day 0, average of 9 rats",244 Grams
same,Daily Body Weight,"[2]; day 0, individual rat",247 Grams and 223 Grams and 252 Grams and 251 Grams and 259 Grams and 236 Grams and 243 Grams and 237 Grams
same,Daily Body Weight,"[2]; day 1, average of 9 rats",234 Grams
same,Daily Body Weight,"[2]; day 1, individual rat",243 Grams and 207 Grams and 240 Grams and 230 Grams and 244 Grams and 242 Grams and 227 Grams and 239 Grams and 237 Grams
same,Daily Body Weight,"[2]; day 2, average of 9 rats",234 Grams
same,Daily Body Weight,"[2]; day 2, individual rat",247 Grams and 205 Grams and 239 Grams and 227 Grams and 243 Grams and 230 Grams and 235 Grams and 237 Grams
same,Daily Body Weight,"[2]; day 3, average of 9 rats",234 Grams
same,Daily Body Weight,"[2]; day 3, individual rat",251 Grams and 204 Grams and 238 Grams and 223 Grams and 240 Grams and 243 Grams and 235 Grams and 233 Grams
same,Daily Body Weight,"[2]; day 4, average of 9 rats",233 Grams
same,Daily Body Weight,"[2]; day 4, individual rat",255 Grams and 199 Grams and 234 Grams and 208 Grams and 235 Grams and 233 Grams and 244 Grams
same,Daily Body Weight,"[2]; day 5, average of 9 rats",236 Grams
same,Daily Body Weight,"[2]; day 5, individual rat",253 Grams and 246 Grams and 234 Grams and 212 Grams and 230 Grams and 241 Grams and 236 Grams and 237 Grams
same,Daily Body Weight,"[2]; day 6, average of 9 rats",235 Grams
same,Daily Body Weight,"[2]; day 6, individual rat",251 Grams and 242 Grams and 233 Grams and 204 Grams and 243 Grams and 248 Grams and 232 Grams and 231 Grams
same,Daily Body Weight,"[2]; day 7, average of 9 rats",228 Grams
same,Daily Body Weight,"[2]; day 7, individual rat",250 Grams and 218 Grams and 232 Grams and 196 Grams and 237 Grams and 219 Grams and 236 Grams
same,change in body weight,"[2]; in words, 7 days",held relatively constant until the final day when they lose weight; also recorded: did not lose weight nor did they gain
same,appetite depression,[3]; Example 4,did not depress the rats appetite
same,differences in dietary nitrogen intake among the three groups,"[3]; vs saline and other groups, 7 days",no differences in dietary nitrogen intake among the three groups
same,Dietary Nitrogen Intake,"[4]; day 1, average of 9 rats",279 MG N
same,Dietary Nitrogen Intake,"[4]; day 1, individual rat",513.24 MG N and 92.12 MG N and 164.5 MG N and 138.18 MG N and 171.08 MG N and 493.5 MG N and 440.86 MG N and 355.32 MG N
same,Dietary Nitrogen Intake,"[4]; day 2, average of 9 rats",376 MG N
same,Dietary Nitrogen Intake,"[4]; day 2, individual rat",532.98 MG N and 256.62 MG N and 526.4 MG N and 59.22 MG N and 282.94 MG N and 506.66 MG N and 263.2 MG N and 447.44 MG N
same,Dietary Nitrogen Intake,"[4]; day 3, average of 9 rats",429 MG N
same,Dietary Nitrogen Intake,"[4]; day 3, individual rat",532.98 MG N and 407.96 MG N and 546.14 MG N and 118.44 MG N and 506.66 MG N and 500.08 MG N and 210.56 MG N and 513.24 MG N and 526.4 MG N
same,Dietary Nitrogen Intake,"[4]; day 4, average of 9 rats",388 MG N
same,Dietary Nitrogen Intake,"[4]; day 4, individual rat",480.34 MG N and 263.2 MG N and 473.76 MG N and 65.8 MG N and 296.1 MG N and 519.82 MG N and 355.32 MG N
same,Dietary Nitrogen Intake,"[4]; day 5, average of 9 rats",369 MG N
same,Dietary Nitrogen Intake,"[4]; day 5, individual rat",480.34 MG N and 427.7 MG N and 355.32 MG N and 0 MG N and 52.64 MG N and 500.08 MG N and 519.82 MG N and 506.66 MG N
same,Dietary Nitrogen Intake,"[4]; day 6, average of 9 rats",434 MG N
same,Dietary Nitrogen Intake,"[4]; day 6, individual rat",526.4 MG N and 421.12 MG N and 388.22 MG N and 0 MG N and 519.82 MG N and 500.08 MG N and 513.24 MG N and 506.66 MG N
same,Dietary Nitrogen Intake,"[4]; day 7, average of 9 rats",466 MG N
same,Dietary Nitrogen Intake,"[4]; day 7, individual rat",526.4 MG N and 546.14 MG N and 506.66 MG N and 0 MG N and 532.98 MG N and 519.82 MG N
same,ACAC,"[5]; plasma, average",0.195 mmol/L
same,BOHB,"[5]; plasma, average",0.897 mmol/L
same,Glucose,"[5]; plasma, average",108.589 mg/dL
same,Total FFA,"[5]; plasma, average",0.580 mmol/L
same,ACAC,"[5]; plasma, individual rat",0.0958 mmol/L and 0.1231 mmol/L and 0.1385 mmol/L and 0.1032 mmol/L and 0.3378 mmol/L and 0.0999 mmol/L and 0.3415 mmol/L and 0.3225 mmol/L
same,BOHB,"[5]; plasma, individual rat",0.8481 mmol/L and 0.9004 mmol/L and 0.2501 mmol/L and 1.13 mmol/L and 0.8685 mmol/L and 1.3611 mmol/L and 0.5709 mmol/L and 1.163 mmol/L and 0.9826 mmol/L
same,Glucose,"[5]; plasma, individual rat",109.8 mg/dL and 105.2 mg/dL and 112.1 mg/dL and 111.4 mg/dL and 121 mg/dL and 91.1 mg/dL and 132.1 mg/dL and 114.6 mg/dL and 80 mg/dL
same,Total FFA,"[5]; plasma, individual rat",0.306 mmol/L and 0.472 mmol/L and 0.376 mmol/L and 1.408 mmol/L and 0.546 mmol/L and 0.651 mmol/L and 0.286 mmol/L and 0.676 mmol/L and 0.498 mmol/L
same,blood / plasma glucose,"[5]; in words, end of day 7",low blood glucose
same,ketone bodies,"[5]; in words, plasma, end of day 7",absence of elevated plasma acetoacetate; also recorded: neither of the ketone bodies were elevated when compared to the saline infused rats
same,Liver/100 GM,[6]; average,3.891
same,Liver/100 GM,[6]; individual rat,3.621 and 5.165 and 3.928 and 3.739 and 4.018 and 3.066 and 4.304 and 3.228 and 3.95
same,Liver Wt.,[6]; average,8.842
same,Liver Wt.,[6]; individual rat,9.0537 and 11.2604 and 9.1128 and 7.3291 and 9.3228 and 7.2672 and 9.4265 and 7.4879 and 9.3213
same,efficacy as parenteral nutrient / energy source,[7],not a good source of energy
same,efficacy as parenteral nutrient / energy source,"[7]; listed as 1-acetoacetamido-2,3-propane diol",ineffective as parenteral nutrients
same,Urinary Nitrogen,"[8]; day 1, average of 9 rats",477 mg
same,Urinary Nitrogen,"[8]; day 1, individual rat",562.1 mg and 483.2 mg and 380.8 mg and 411.4 mg and 401.7 mg and 527.6 mg and 477.8 mg and 509.6 mg and 536.4 mg
same,Urinary Nitrogen,"[8]; day 2, average of 9 rats",550 mg
same,Urinary Nitrogen,"[8]; day 2, individual rat",661.5 mg and 542.5 mg and 499.8 mg and 464 mg and 462.84 mg and 583.3 mg and 486 mg and 528 mg and 718.2 mg
same,Urinary Nitrogen,"[8]; day 3, average of 9 rats",576 mg
same,Urinary Nitrogen,"[8]; day 3, individual rat",671.9 mg and 704.1 mg and 548.1 mg and 413.8 mg and 619.3 mg and 603.8 mg and 315.2 mg and 622.2 mg and 682.4 mg
same,Urinary Nitrogen,"[8]; day 4, average of 9 rats",531 mg
same,Urinary Nitrogen,"[8]; day 4, individual rat",559.8 mg and 477.4 mg and 468.3 mg and 385 mg and 499.7 mg and 603.7 mg and 494.3 mg and 614.8 mg and 674.2 mg
same,Urinary Nitrogen,"[8]; day 5, average of 9 rats",479 mg
same,Urinary Nitrogen,"[8]; day 5, individual rat",599 mg and 456 mg and 434.3 mg and 300.2 mg and 365.9 mg and 503.5 mg and 525.1 mg and 552.9 mg and 572.3 mg
same,Urinary Nitrogen,"[8]; day 6, average of 9 rats",548 mg
same,Urinary Nitrogen,"[8]; day 6, individual rat",569 mg and 659.4 mg and 440.8 mg and 286.1 mg and 545.2 mg and 538.5 mg and 608.2 mg and 599 mg and 686.7 mg
same,Urinary Nitrogen,"[8]; day 7, average of 9 rats",567 mg
same,Urinary Nitrogen,"[8]; day 7, individual rat",602 mg and 613.5 mg and 519.4 mg and 81.4 mg and 588.3 mg and 633.1 mg and 678 mg and 683.9 mg and 706.8 mg
same,urinary nitrogen losses,"[8]; in words, 7 days",reflects the greater nitrogen intake by rats infused with the experimental compound
same,"Nitrogen Balance, Difference Between Intake And Output","[9]; Table 9, Example 4, infused nitrogen not considered, day 1",-198 mg N
same,"Nitrogen Balance, Difference Between Intake And Output","[9]; Table 9, Example 4, infused nitrogen not considered, day 2",-173 mg N
same,"Nitrogen Balance, Difference Between Intake And Output","[9]; Table 9, Example 4, infused nitrogen not considered, day 3",-146 mg N
same,"Nitrogen Balance, Difference Between Intake And Output","[9]; Table 9, Example 4, infused nitrogen not considered, day 4",-142 mg N
same,"Nitrogen Balance, Difference Between Intake And Output","[9]; Table 9, Example 4, infused nitrogen not considered, day 5",-109 mg N
same,"Nitrogen Balance, Difference Between Intake And Output","[9]; Table 9, Example 4, infused nitrogen not considered, day 6",-114 mg N
same,"Nitrogen Balance, Difference Between Intake And Output","[9]; Table 9, Example 4, infused nitrogen not considered, day 7",-101 mg N
same,"Nitrogen Balance, Difference Between Intake And Output","[9]; Table 9A, Example 4, infused nitrogen included, day 1",256 mg N
same,"Nitrogen Balance, Difference Between Intake And Output","[9]; Table 9A, Example 4, infused nitrogen included, day 2",258 mg N
same,"Nitrogen Balance, Difference Between Intake And Output","[9]; Table 9A, Example 4, infused nitrogen included, day 3",361 mg N
same,"Nitrogen Balance, Difference Between Intake And Output","[9]; Table 9A, Example 4, infused nitrogen included, day 4",302 mg N
same,"Nitrogen Balance, Difference Between Intake And Output","[9]; Table 9A, Example 4, infused nitrogen included, day 5",317 mg N
same,"Nitrogen Balance, Difference Between Intake And Output","[9]; Table 9A, Example 4, infused nitrogen included, day 6",299 mg N
same,"Nitrogen Balance, Difference Between Intake And Output","[9]; Table 9A, Example 4, infused nitrogen included, day 7",336 mg N
same,nitrogen balance,"[9]; in words, 7 days",negative nitrogen balance if nitrogen content of the compound is not considered
